Here are results for one compound from patent US6653337B2, “Therapy of auto-immune disease by a photochemotherapeutical method” (Meiji Seika Kaisha, Ltd., priority 1996, dated 2003).

The conditions of data set [1]: in vivo.
The subject of another data set is CD-1 mice (male). The experiment in a line: Acute toxicity of NPe6 in mice (LD50). Format: in vivo.
The test system of data set [2] is MRL/1pr mice. The data set can be described thus: Liver (GPT enzyme in blood) and skin safety in MRL/1pr mice after NPe6 photochemotherapy. Format: in vivo. The method, then: To MRL/1pr mice (eight mice per group) of 18 week-old age which have been affected completely by auto-immune diseases, a solution of mono-L-aspartyl chlorin e6 tetrasodium salt (abbreviation: NPe6) dissolved in a physiological saline solution at a NPe6 concentration of 0.1 mg/ml was intra-venously administered in such an amount to give a dosage of NPe6 of 0.5 mg/kg. After 30 minutes from the administration of NPe6, the mice were irradiated with a laser light at wave-length of 664 nm in such a manner that the skin surface on the abdominal region already shaved off of said mice would receive the laser light over a wide area of about 25 cm^2 per mouse tested at an intensity of 20 Joules/cm^2. Thus, the NPe6 contained in the blood stream within the blood vessel beneath the skin of the abdominal region of the mice was irradiated with the laser light and thereby was excited photochemically. […] After 24 hours from the completion of the therapeutic treatments, which was counted from the final run of irradiation of the laser light applied to the mice of the treated group, and thus at the time when the mice tested became 19 week-old, the judgment was made about the therapeutical effects appeared on the treated mice. […]

The next data set relates to anti-ds-DNA antibody. The experiment in a line: Anti-ds-DNA antibody value in blood of MRL/1pr mice after NPe6 photochemotherapy (Anti-DNA kit). It counts as in vivo. The source says:
(§1) MRL/1pr mice, which are known as a model of a spontaneous systemic auto-immune diseases, have such inherent property that they spontaneously develop the systemic auto-immune disease due to 1pr-gene. In this case, the characteristic observations of the resulting auto-immune disease include the formation of lymphoma and splenoma as caused by proliferation of heterolymphoid cells, the production of anti-ds-DNA antibody as the auto-antibody, and (or) the outbreak of lupus nephritis owing to the deposition of immune complexes, whereby an early death of the MRL/1pr mice can naturally be involved. For instance, untreated MRL/1pr mice usually have such nature that their mortality reaches 50% at 25 week-old.
(§2) To MRL/1pr mice (eight mice per group) of 18 week-old age which have been affected completely by auto-immune diseases, a solution of mono-L-aspartyl chlorin e6 tetrasodium salt (abbreviation: NPe6) dissolved in a physiological saline solution at a NPe6 concentration of 0.1 mg/ml was intra-venously administered in such an amount to give a dosage of NPe6 of 0.5 mg/kg. […] After 24 hours from the completion of the therapeutic treatments, which was counted from the final run of irradiation of the laser light applied to the mice of the treated group, and thus at the time when the mice tested became 19 week-old, the judgment was made about the therapeutical effects appeared on the treated mice. […]

The test system of data set [3] is MRL/1pr mice. The experiment in a line: Kidney function (urea nitrogen in blood, protein in urine) of MRL/1pr mice after NPe6 photochemotherapy. Format: in vivo. The settings on record: 19 weeks old, 24 h after 8th laser irradiation, NPe6 0.5 mg/kg i.v. + 664 nm laser, eight times.
Source text: as §1, §2

In data set [4] the test system is MRL/1pr mice. The experiment in a line: Survival of MRL/1pr mice after NPe6 photochemotherapy. The following applies: for Survival rate (%) of the mice: treated group, 8 mice. Format: in vivo.
Source text: as §1
To MRL/1pr mice (eight mice per group) of 18 week-old age which have been affected completely by auto-immune diseases, a solution of mono-L-aspartyl chlorin e6 tetrasodium salt (abbreviation: NPe6) dissolved in a physiological saline solution at a NPe6 concentration of 0.1 mg/ml was intra-venously administered in such an amount to give a dosage of NPe6 of 0.5 mg/kg. After 30 minutes from the administration of NPe6, the mice were irradiated with a laser light at wave-length of 664 nm in such a manner that the skin surface on the abdominal region already shaved off of said mice would receive the laser light over a wide area of about 25 cm^2 per mouse tested at an intensity of 20 Joules/cm^2. Thus, the NPe6 contained in the blood stream within the blood vessel beneath the skin of the abdominal region of the mice was irradiated with the laser light and thereby was excited photochemically. Such photochemotherapeutic procedure comprising the intravenous administration of NPe6 and the irradiation of the laser light was applied eight times to each of the mice under test for 10 days. After 24 hours from the completion of the therapeutic treatments, which was counted from the final run of irradiation of the laser light applied to the mice of the treated group, and thus at the time when the mice tested became 19 week-old, the judgment was made about the therapeutical effects appeared on the treated mice. Further, the survival effect on the treated mice was also observed over the period of from the start of practicing this therapeutic treatments to the point of the 49 week-old age of the mice.
For the untreated group of MRL/1pr mice (10 mice per group, 18-weeks old), merely a physiological saline solution (containing no NPe6) was administered intravenously in the same amount as that for the treated group of mice, and then the mice were irradiated with a laser light as similar as the treated group of mice.
(3) After the completion of the treatment as effected by the above-mentioned photochemotherapeutic procedure, the mice under the test were bred to be 49-weeks old and the survival rate (%) of the mice was measured once a week.

Where “and” joins values, the source holds several entries; their conditions need not be identical. Identical values can stand only once. Entries after “also recorded” stand apart in the source; their conditions may differ.

Regarding `C=Cc1c(C)c2cc3nc(c(CC(=O)N[C@@H](CC(=O)[O-])C(=O)[O-])c4[nH]c(cc5nc(cc1[nH]2)C(C)=C5CC)c(C)c4C(=O)[O-])[C@@H](CCC(=O)[O-])[C@@H]3C.[Na+].[Na+].[Na+].[Na+]` [NPe6, mono-L-aspartyl chlorin e6 tetrasodium salt], the “photo-toxicity test: reactions such as erythema, edema” value in data set [1] is listed as “no reactions such as erythema, edema”. Also, the “acute toxicity, LD50 value” in the data set on CD-1 mice (male) amounted to 164 mg/kg. In the data set on MRL/1pr mice [2] (19 weeks old, 24 h after 8th laser irradiation), the “content of GPT enzyme in the blood compared with untreated group” value is “no difference was found”. In addition, the “visual observation of the skin after eight percutaneous laser irradiations” value in the data set on MRL/1pr mice [2] (shaved abdominal region, 664 nm laser 20 Joules/cm^2) is recorded as “not observed visually that any action of changing the skin was involved”. In the data set on anti-ds-DNA antibody (19 weeks old, 24 h after 8th laser irradiation, NPe6 0.5 mg/kg i.v. + 664 nm laser 20 Joules/cm^2, eight times for 10 days), the “antibody value of anti-ds-DNA antibody in blood” value is recorded as 5.7±5.3 IU/ml. For the same compound, the “effect on antibody value of the auto-antibody (anti-ds-DNA) in blood, in words” value with anti-ds-DNA antibody (NPe6 i.v. + laser light at 664 nm, versus untreated group) is “decreasing remarkably the antibody value; also recorded: significantly and remarkably decreased”. In the data set with MRL/1pr mice [3], the “content of protein in urine” value came out at 85.2 ± 5.0 mg/dL. Also, in the data set on MRL/1pr mice [3], the “content of urea nitrogen in blood” value amounted to 22.3 ± 1.4 mg/dL. The “Survival rate (%) of the mice” value was 100 (8) % with MRL/1pr mice [4] (age 18 weeks (start of treatment), number in parentheses = surviving mice); 100 (8) % in the data set on MRL/1pr mice [4] (age 20 weeks); 100 (8) % in the data set with MRL/1pr mice [4] (age 21 weeks); 100 (8) % in the data set with MRL/1pr mice [4] (age 23 weeks); 100% and 100 (8) % in the data set with MRL/1pr mice [4] (age 25 weeks); 100 (8) % in the data set on MRL/1pr mice [4] (age 27 weeks). Moreover, the “Survival rate (%) of the mice” value in the data set on MRL/1pr mice [4] (age 30 weeks) was 100 (8) %; in the data set on MRL/1pr mice [4] (age 33 weeks) it was 88 (7) %; with MRL/1pr mice [4] (age 36 weeks), 88 (7) %; in the data set on MRL/1pr mice [4] (age 43 weeks), 75 (6) %; with MRL/1pr mice [4] (age 46 weeks) it was 63 (5) %; in the data set on MRL/1pr mice [4] (age 49 weeks) it was 63 (5) %. In addition, in the data set with MRL/1pr mice [4] (treated group of MRL/1pr mice), the “age at which the survival rate of the mice is 50 %” value is given as > 49 weeks.
